These results are taken from ChEMBL document CHEMBL3044700, “Molecular modeling and protection against pentylenetetrazole-induced seizure of new 1,4-dihydropyridines containing 5(4)-imidazolyl substituent” (Med Chem Res, 2012).

The structures appear in SMILES notation. Active and inactive are the calls of the source. The calls are words filed in the database; no cut-off is given here.

The subject of experiment [1] is Mus musculus. Description: Anticonvulsant activity in Mus musculus NMRI (mouse) assessed as protection against pentylenetetrazole-induced seizures at 5 to 20 mg/kg, ip administered 30 min prior to pentylenetetrazole induction relative to vehicle-treated control. It is filed as functional, organism-based.
The test system of experiment [2] is Mus musculus. Description: Anticonvulsant activity in Mus musculus NMRI (mouse) assessed as protection against pentylenetetrazole-induced seizures at 20 mg/kg, ip administered 30 min prior to pentylenetetrazole induction relative to vehicle-treated control. Also noted: dose 20 mg/kg. Format: functional, organism-based.

On to `CCc1nc(C2C(C(=O)OCCc3ccccc3)=C(C)NC(C)=C2C(=O)OCCc2ccccc2)c(Cl)[nH]1`, for which the outcome with Mus musculus [1] was Active.
As to `CC1=C(C(=O)OCc2ccccc2)C(c2nc[nH]c2Cl)C(C(=O)OCc2ccccc2)=C(C)N1`, the result in the experiment on Mus musculus [1] was Active.
Same read-out and setting: for `CCc1nc(C2C(C(=O)OC)=C(C)NC(C)=C2C(=O)OCCc2ccccc2)c(Cl)[nH]1` (stereo not drawn) the value was “Active”.
Regarding `COC(=O)C1=C(C)NC(C)=C(C(=O)OC)C1c1ccccc1[N+](=O)[O-]`, in the experiment with Mus musculus [2], the result was Active.
Turning to `CC1=C(C(=O)OCCc2ccccc2)C(c2nc[nH]c2Cl)C(C(=O)OCCc2ccccc2)=C(C)N1`, in the experiment with Mus musculus [1], the result was Active.
On the same count and under the same terms, the same measure for `CCc1nc(C2C(C(=O)OCc3ccccc3)=C(C)NC(C)=C2C(=O)OCc2ccccc2)c(Cl)[nH]1`: “Active”.
With `CC1=C(C(=O)OCCCc2ccccc2)C(c2nc[nH]c2Cl)C(C(=O)OCCCc2ccccc2)=C(C)N1`, in the experiment on Mus musculus [1], the outcome was Active.
`CCOC(=O)C1=C(C)NC(C)=C(C(=O)OCCc2ccccc2)C1c1nc(CC)[nH]c1Cl` (stereo not drawn): the outcome with Mus musculus [1] was Active.
